Measurements: paper PMC8125647, “A Validated LC–MS/MS Assay for the Simultaneous Quantification of the FDA-Approved Anticancer Mixture (Encorafenib and Binimetinib): Metabolic Stability Estimation” (Molecules, 2021)
Like-named read-outs stand apart in the source and are kept apart here.

What was measured:
[1] = Solubility in DMSO (stock preparation); assay type: physicochemical; details: stocks at 1 mg/mL
Description: We subsequently conducted serial dilution of the stock solutions with the optimized mobile phase to obtain stocks (S1) for ENF and BNB at a 100 µg/mL concentration. The S1 stocks were then serially diluted with mobile phase to obtain stocks (S2) for ENF and BNB at a 10 µg/mL concentration. The AVB stock was dissolved in DMSO to obtain a 100 µg/mL concentration that was then serially diluted with the mobile phase to obtain a stock (S3) of AVB at a 1 µg/mL concentration.

[2] = Metabolic stability after incubation with human liver microsomes (LC-MS/MS); assay type: in vitro ADME; details: for Slope (rate constant of disappearance, ln % remaining vs time): HLM; for half-life at 1 µM / microsomal CLint at 1 µM: human, human liver microsomes, HLM 1 mg/mL; for half-life at 1 µM: NADPH 1 mM, 37 °C, read-out: in vitro t1/2 (half-life); for microsomal CLint at 1 µM: read-out: CLint (intrinsic clearance)
Description: The slope of each regression equation was used to estimate the in vitro t1/2 using the following equations:(1) In vitro t 1/2=ln2/slope (2) In vitro t 1/2=0.693/slope
Similarly, the CLint of ENF and BNB was calculated following the in vitro t1/2 method (15) using the following equation:(3) CLint, =0.693/in vitro t 1/2. µL incubation/mg microsomes (4) CLint, =0.693/in vitro t 1/2. 1000 /1
BNB and ENF concentration during HLM incubation was adjusted to 1 µM to ensure that it was less than the Michaelis–Menten constant and constructed a linear relationship between the ratio of metabolism and incubation time. HLMs (1 mg/mL) in phosphate buffer were used to confirm the absence of nonspecific protein binding. We performed metabolic stability assessments for ENF and BNB by measuring the decrease in ENF and BNB concentrations after incubation with an HLM matrix. One micromole from ENF and BNB was incubated with HLM (1 mg protein in 1 mL phosphate buffer) in triplicate. The metabolic reaction medium was phosphate buffer (pH 7.4) containing 3.3 mM MgCl2. The metabolic mixture was pre-incubated in a 37 °C water bath for 10 min for temperature conditioning. NADPH (1 mM) was used for the initiation of the metabolic reaction, after which 2 mL ACN was used to terminate the reaction at specific time intervals (0, 1, 2.5, 7.5, 15, 30, and 50 min), allowing us to establish metabolic stability curves for ENF and BNB. We conducted this metabolic experiment for ENF alone, BNB alone, and a mixture of ENF and BNB to evaluate the metabolic stability of BNB and ENF alone and combined. The proportion of BNB and ENF remaining either alone or combined was plotted versus incubation time. From this plot, time points in the linear range were selected to plot the natural logarithm (ln) of the remaining proportions of ENF and BNB versus time. The slope of the linear part indicated the rate constant for ENF and BNB disappearance that was used for in vitro t1/2 calculation using equation (1). Then, ENF and BNB CLint values, either alone or combined, were calculated by applying the following Equation (3).

[3] = Stability in deactivated HLM matrix under laboratory storage conditions; assay type: physicochemical
Description: We evaluated the stability of ENF and BNB in deactivated HLM matrix (1 mg protein/1 mL phosphate buffer) under common laboratory storage conditions. Analyte stability evaluation was performed in different conditions: Room temperature for 8 h, three freeze–thaw cycles, storage at 4 °C for 24 h, and storage at −20 °C for 30 d. Measured values were 96.55–101.64% for ENF and 96.79–100.05% for BNB. Stability data for ENF and BNB are described in Table 4. […] The stability data reveal that the LC–MS/MS method could be successfully used for assaying ENF and BNB without noticeable loss.
The accuracy and precision of the proposed method were investigated inter- and intra-day. The intra- and inter-day accuracy and precision values were calculated according to USFDA guidelines. The stability of ENF and BNB in different conditions, room temperature for 8 h, three freeze–thaw cycles, and storage at 4 °C for 24 h and at −20 °C for 30 d, were examined.

[4] = pH 7.4, in mixture of ENF and BNB
[5] = room temperature for 8 h, 15 ng/mL
[6] = room temperature for 8 h, 150 ng/mL
[7] = room temperature for 8 h, 400 ng/mL
[8] = stored at 4 °C for 24 h, 400 ng/mL
[9] = stored at −20 °C for 30 days, 15 ng/mL
[10] = stored at −20 °C for 30 days, 150 ng/mL
[11] = stored at −20 °C for 30 days, 400 ng/mL
[12] = three freeze–thaw cycles, 15 ng/mL
[13] = three freeze–thaw cycles, 150 ng/mL
[14] = three freeze–thaw cycles, 400 ng/mL

Row | Compound | Solubility in DMSO [1] | Slope (rate constant of disappearance, ln % remaining vs time) ([2]; drug alone) | half-life at 1 µM ([2]; pH 7.4, drug alone) [min] | microsomal CLint at 1 µM ([2]; pH 7.4, drug alone) [µL/min/mg] | half-life at 1 µM [2, 4] [min] | microsomal CLint at 1 µM [2, 4] [µL/min/mg] | Slope (rate constant of disappearance, ln % remaining vs time) ([2]; in mixture of ENF and BNB) | Recovery % [3, 5] [%] | Recovery % [3, 6] [%] | Recovery % [3, 7] [%] | Recovery % ([3]; stored at 4 °C for 24 h, 15 ng/mL) [%] | Recovery % ([3]; stored at 4 °C for 24 h, 150 ng/mL) [%] | Recovery % [3, 8] [%] | Recovery % [3, 9] [%] | Recovery % [3, 10] [%] | Recovery % [3, 11] [%] | Recovery % [3, 12] [%] | Recovery % [3, 13] [%] | Recovery % [3, 14] [%] | Stability, measured values over all storage conditions ([3]; room temperature 8 h, three freeze–thaw cycles, 4 °C 24 h, −20 °C 30 d)
1 | C=CC(=O)Nc1cccc(Oc2nc(Nc3ccc(N4CCN(C)CC4)c(F)c3)nc3[nH]ccc23)c1 [AVB, avitinib] | freely soluble | – | – | – | – | – | – | – | – | – | – | – | – | – | – | – | – | – | – | –
2 | Cn1cnc2c(F)c(Nc3ccc(Br)cc3F)c(C(=O)NOCCO)cc21 [BNB, binimetinib] | freely soluble | 0.0115 | 60.3 | 11.5 | 58.2 | 11.9 | 0.0119 | 99.25 | 98.25 | 98.85 | 100.05 | 97.59 | 99.33 | 96.72 | 97.72 | 98.78 | 98.32 | 96.79 | 97.48 | –
3 | COC(=O)N[C@@H](C)CNc1nccc(-c2cn(C(C)C)nc2-c2cc(Cl)cc(NS(C)(=O)=O)c2F)n1 [ENF, encorafenib] | freely soluble | 0.0161 | 43.1 | 16.1 | 45.9 | 15.1 | 0.0151 | 101.64 | 100.55 | 101.46 | – | – | 98.21 | 100.18 | 96.55 | 98.41 | 97.37 | 97.22 | 99.66 | 96.55–101.64%
